# Patent publication US9346741B2, “Polyamine transport selective therapeutic agents with enhanced stability” (University of Central Florida Research Foundation, Inc., priority 2012, dated 2016)
# “Also recorded” adds a separate entry of the source. Like-named read-outs stand apart in the source and are kept apart here.
# Key:
# [1] = system: MALME-3 cells; test: Cytotoxicity IC50 determination (MTS) in MALME-3 cells; assay type: cell-based, human; details: for IC50: 96 h at 37° C., 1 mM AG, 10% FBS
# Method: (§1) Armed with this insight, compounds 5a-8b were evaluated in the MALME-3M (melanoma) cell line and its non-cancerous counterpart MALME-3 obtained originally from the same patient. These matched cell lines provided a method to assess PTS selectivity for the cancer line (MALME-3M) over the non-cancerous cell line (MALME-3).
# (§2) CHO and CHO-MG cells were grown in RPMI 1640 medium supplemented with 10% fetal calf serum and 1% penicillin/streptomycin. Note: the media must contain L-proline (2 μg/mL) for proper growth of the CHO-MG cells. MALME-3M cells were grown in RPMI 1640 medium supplemented with 10% FBS and 1% penicillin/streptomycin. All cells were grown at 37° C. under a humidified 5% CO2 atmosphere Aminoguanidine (1 mM) was added to the growth medium to prevent oxidation of the drugs by the enzyme (bovine serum amine oxidase) present in calf serum. Cells in early to mid-log phase were used.
# (§3) Cell growth was assayed in sterile 96-well microtiter plates (Costar 3599, Corning, N.Y., USA). CHO and CHO-MG* cells were plated at 10,000 cells/mL. MALME-3M and MALME-3 cells were plated at 5,000 cells/mL. Drug solutions (10 μL per well) of appropriate concentration were added after an overnight incubation for each CHO cell line (90 μL). 48 h MALME-3M experiments were conducted using 10% Nu-Serum IV, and 96 h MALME-3M and MALME-3 experiments were conducted using 10% FBS. After exposure to the drug for 48 h (CHO, CHO-MG*, and MALME-3M) or 96 h (MALME-3M and MALME-3), cell growth was determined by measuring formazan
# (§4) formation from 3-(4,5-dimethylthiazol-2-yl)-5-(3-carboxymethoxyphenyl)-2-(4-sulphenyl)-2H-tetrazolium) inner salt (MTS) using a SynergyMx Biotek microplate reader for absorbance ([…]) measurements.^24
# [2] = system: MALME-3M cells; test: Cytotoxicity IC50 determination (MTS) in MALME-3M cells; assay type: cell-based, human
# Method: as §1, with “(MALME-3). […]” for “(MALME-3).”
# as §2, §3, §4
# [3] = system: CHO-MG* cells; test: Cytotoxicity IC50 determination (MTS) in polyamine-transport-deficient CHO-MG* cells; assay type: cell-based, Chinese hamster; details: 48 h at 37° C.
# Description: (§5) CHO cells were chosen along with a mutant cell line (CHO-MG*) to comment on how the synthetic conjugates gain access to the cells.^2c-e, 6 As discussed earlier, the CHO-MG cell line is polyamine-transport deficient and represents a model for alternative modes of entry (other than PTS) including passive diffusion or use of another transporter. The CHO cell line on the other hand, represents cells with high polyamine transport activity.^7, 10c A comparison of toxicity in these two CHO cell lines allowed for a screen that would detect selective use of the polyamine transporter. This is seen where high utilization of the PTS would be very toxic to CHO cells, however, there would not be the same level of toxicity found in CHO-MG cells.^2c-e, 6 Ultimately, a CHO-MG/CHO IC50 can be determined where a high ratio would be achieved for highly PTS selective compounds.
# (§6) CHO and CHO-MG cells were grown in RPMI 1640 medium supplemented with 10% fetal calf serum and 1% penicillin/streptomycin. Note: the media must contain L-proline (2 μg/mL) for proper growth of the CHO-MG cells. MALME-3M cells were grown in RPMI 1640 medium supplemented with 10% FBS and 1% penicillin/streptomycin. […] Cells in early to mid-log phase were used.
# as §3, §4
# [4] = system: CHO cells; test: in vitro; assay type: cell-based; details: for IC50: 48 h at 37° C.
# Description: as §5, §6, §3, §4
# [5] = system: polyamine transport system (PTS), CHO-MG* vs CHO cells; test: CHO-MG*/CHO IC50 ratio, a measure of PTS selectivity; assay type: cell-based, Chinese hamster; details: 48 h; for IC50 ratio w/AG (CHO-MG*/CHO): with 1 mM AG; for IC50 ratio w/o AG (CHO-MG*/CHO): without AG
# Description: Compounds with high CHO-MG/CHO IC50 ratios are considered PTS selective.
# as §5
# [6] = system: MALME-3M (melanoma) vs MALME-3 (normal) cells; test: MALME-3/MALME-3M IC50 ratio, a measure of selectivity; assay type: cell-based, human; details: 96 h; 1 mM AG
# Description: These matched cell lines provided a method to assess PTS selectivity for the cancer line (MALME-3M) over the non-cancerous cell line (MALME-3).
# [7] = system: polyamine transport system (PTS) in L1210 cells; details: cited from earlier work
# [8] = system: 60 human cancer cell lines; test: NCI 60 cell-line screen; assay type: cell-based; details: 48 h; for effect on breast cancer cell lines in the NCI 60 cell-line screen / effect on melanoma cell lines in the NCI 60 cell-line screen: 10 μM
# Method: Once compounds 6a-b, 7a-b, and 8a-8b were evaluated in CHO and CHO-MG*, these compounds were sent to the National Cancer institute (NCI) to conduct its 60 cell-line screen to determine if these compounds could also be potent anti-cancer agents for human cancer cell lines. […] As shown in FIGS. 2A-2C, dose response curves were generated based upon the 60 cell-line screen at different molar concentrations of each PTS targeting agent 6b, 7b, and 8b.
# To generate FIGS. 2A-2C, the respective drug was dosed at 10 μM into each human cancer cell line and cell viability was assessed after a 48 h incubation at 37° C. in an environment of 5% CO2, 95% air and 100% relative humidity. A more descriptive methodology can be found at the NCI website: http://dtp.nci.nih.gov/branches/btb/ivclsp.html. Cell lines which gave bar graphs which extend to the right of the central line were more sensitive to the drug than cell lines which extended to the left of the center line.
# [9] = system: 60 human cancer cell lines; test: NCI 60 cell-line screen; assay type: cell-based; details: 5-dose assay
# [10] = 1 mM AG 24 h prior to drug addition, read-out: CHO-MG* IC50 (μM) w/AG
# [11] = without AG, read-out: CHO-MG* IC50 (μM) w/o AG
# [12] = 1 mM AG 24 h prior to drug addition, read-out: CHO IC50 (μM) w/AG
# [13] = without AG, read-out: CHO IC50 (μM) w/o AG
# [14] = 48 h at 37° C., 1 mM AG, 10% Nu-Serum IV, read-out: MALME-3M IC50 (μM) w/ AG
# [15] = 48 h at 37° C., without AG, 10% Nu-Serum IV, read-out: MALME-3M IC50 (μM) w/o AG
# [16] = 96 h at 37° C., 1 mM AG, 10% FBS, read-out: MALME-3M IC50
# [17] = Cricetulus griseus, CHO-MG, 1 mM AG 24 h prior to drug addition, read-out: CHO-MG* IC50 (μM) w/AG
# [18] = Cricetulus griseus, CHO-MG, without AG, read-out: CHO-MG* IC50 (μM) w/o AG
# [19] = Cricetulus griseus, CHO, 1 mM AG 24 h prior to drug addition, read-out: CHO IC50 (μM) w/AG
# [20] = Cricetulus griseus, CHO, without AG, read-out: CHO IC50 (μM) w/o AG
# [21] = Homo sapiens, Malme-3M, 48 h at 37° C., 1 mM AG, 10% Nu-Serum IV, read-out: MALME-3M IC50 (μM) w/ AG
# [22] = Homo sapiens, Malme-3M, 48 h at 37° C., without AG, 10% Nu-Serum IV, read-out: MALME-3M IC50 (μM) w/o AG
# [23] = Homo sapiens, Malme-3M, 96 h at 37° C., 1 mM AG, 10% FBS, read-out: MALME-3M IC50
Compound,"IC50 [3, 10]","IC50 [3, 11]","IC50 [4, 12]","IC50 [4, 13]",IC50 ratio w/AG (CHO-MG*/CHO) [5],IC50 ratio w/o AG (CHO-MG*/CHO) [5],IC50 [1],"IC50 [2, 14]","IC50 [2, 15]","IC50 [2, 16]",MALME-3/MALME-3M IC50 ratio [6],Ki ([7]; read-out: Ki in L1210 cells),other results
"N=C(N)NN [AG, aminoguanidine, reference compound]",,,,,,,,,,,,,toxicity of 1 mM AG in MALME-3 cells ([1]; 1 mM): ^b1 mM AG was determined to be non-toxic and incubated with MALME-3M and MALME-3 cells for 24 h prior to drug addition.; toxicity of 1 mM AG in MALME-3M cells ([2]; 1 mM): ^b1 mM AG was determined to be non-toxic and incubated with MALME-3M and MALME-3 cells for 24 h prior to drug addition; also recorded: ^b1 mM AG was determined to be non-toxic and incubated with MALME-3M cells for 24 h prior to drug addition
CNCCCCNCCCCNCc1c2ccccc2cc2ccccc12 [Compound 5b],10.7 µM,11.3 µM,2.8 µM,2.1 µM,3.8,5.4,0.62 µM,0.6 µM,0.62 µM,0.45 µM,1.4,,
NCCCCNCCCCNCc1c2ccccc2c(CNCCCCNCCCCN)c2ccccc12 [Compound 6a],> 100 µM,8.4 µM,0.028 µM,4 µM,>3571,2.1,0.69 µM,0.088 µM,0.29 µM,0.017 µM,41,0.39 µM,
"CNCCCCNCCCCNCc1c2ccccc2c(CNCCCCNCCCCNC)c2ccccc12 [Compound 6b, N1,N1′-(Anthracene-9,10-diylbis(methylene))bis(N4-(4-(methylamino)butyl)butane-1,4-diamine)]",,,,,>1204,>1190,,,,,16,,"IC50 [3, 17]: > 100 µM; IC50 [3, 18]: > 100 µM; IC50 [4, 19]: 0.083 µM; IC50 [4, 20]: 0.084 µM; IC50 ([1]; Homo sapiens, MALME-3): 1 µM; IC50 [2, 21]: 0.13 µM; IC50 [2, 22]: 0.16 µM; IC50 [2, 23]: 0.062 µM; effect on breast cancer cell lines in the NCI 60 cell-line screen [8]: exhibited an anti-proliferation effect in breast cancer cell lines, particularly the T-47D cell line; effect on melanoma cell lines in the NCI 60 cell-line screen [8]: inhibited the proliferation of melanoma cell lines, particularly the MALME-3M cell line; NCI 60 cell-line screen, overall result ([8]; no AG): cell-targeting specificity, especially for the MALME-3M cell line; NCI 5-dose assay, MALME-3M cell line [9]: dose dependent response"
NCCCCNCCCCNCc1ccc(CNCCCCNCCCCN)c2ccccc12 [Compound 7a],> 100 µM,52.1 µM,0.022 µM,5.5 µM,>4545,9.5,1.27 µM,0.043 µM,0.43 µM,0.018 µM,71,0.17 µM,
"CNCCCCNCCCCNCc1ccc(CNCCCCNCCCCNC)c2ccccc12 [Compound 7b, N1,N1′-(Naphthalene-1,4-diylbis(methylene))bis(N4-(4-(methylamino)butyl)butane-1,4-diamine)]",,,,,>2272,>2564,,,,,59,,"IC50 [3, 17]: > 100 µM; IC50 [3, 18]: > 100 µM; IC50 [4, 19]: 0.044 µM; IC50 [4, 20]: 0.039 µM; IC50 ([1]; Homo sapiens, MALME-3): 0.82 µM; IC50 [2, 21]: 0.1 µM; IC50 [2, 22]: 0.17 µM; IC50 [2, 23]: 0.014 µM; effect on breast cancer cell lines in the NCI 60 cell-line screen [8]: exhibited an anti-proliferation effect in breast cancer cell lines, particularly the T-47D cell line; effect on melanoma cell lines in the NCI 60 cell-line screen [8]: inhibited the proliferation of melanoma cell lines, particularly the MALME-3M cell line; NCI 5-dose assay, MALME-3M cell line [9]: dose dependent response"
"NCCCCNCCCCNCc1cc(CNCCCCNCCCCN)cc(CNCCCCNCCCCN)c1 [Compound 32, reference compound]",,,,,1,,,,,,,,"IC50 ([3]; Cricetulus griseus, CHO-MG, Table 4, 1 mM AG 24 h prior to drug addition, read-out: CHO-MG* IC50): > 100 µM; fold less toxic than 34a in the CHO cell line ([4]; CHO, versus 34a): > 3500 fold; IC50 ([4]; Cricetulus griseus, CHO, Table 4, 1 mM AG 24 h prior to drug addition, read-out: CHO IC50): > 100 µM; MTD (μM) in CHO (maximum tolerated dose) ([4]; hamster): 80 µM; Ki ([7]; unit inferred, read-out: Ki values in L1210 cells): 0.52 ± 0.11 µM"
"NCCCCNCCCN [Spermidine, spermidine, reference compound]",,,,,,,,,,,,2.46 µM,non-toxic concentration in MALME-3 ([1]; spermidine alone): up to 100 μM; non-toxic concentration in MALME-3M ([2]; spermidine alone): up to 100 μM
